Data on ten compounds can be found in ChEMBL document CHEMBL1201862, “PubChem BioAssay data set” (2004).

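Five concentrations, 48 hours, 96-well plates. Abbreviation: GI50, concentration required for 50% inhibition of growth.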 The source made the active and inactive calls. No stated cut-off is given here; in the data, active = GI50 up to about 1.1 µM and inactive = higher.

Test systems include K562; CCRF-CEM; NCI-H460; HCT-15; HCC 2998; SN12C; HT-29; SF-295; DLD-1; A498; SK-MEL-28; SK-MEL-5; NCI-H23; ACHN; RPMI-8226; NCI-H226.
Assay in all cases: growth of human tumour cells (NCI), 48 h

As for `CCC1(N=[N+]=[N-])C(=O)c2ccccc2N(c2ccccc2)C1=O` (stereo not given), the GI50 with K562 was > 100 µM (inactive); in the test with CCRF-CEM it was > 100 µM (inactive); with NCI-H460, > 100 µM (inactive); in the test on HCT-15, over 100 µM; with HCC 2998 it was > 100 µM (inactive); with SN12C it was > 100 µM (inactive). The GI50 in the test with HT-29, in the test on SF-295, in the test with DLD-1, with A498, in the test with SK-MEL-28 and in the test on SK-MEL-5 was > 100 µM (inactive) in each case. The GI50 with NCI-H23 and in the test on ACHN was > 100 µM (inactive) in each case.

Regarding `COC(=O)C1(C(=O)OC)CC2c3c(c4ccccc4n3C)CC(C1=O)N2Cc1ccccc1` (stereo not given), the GI50 with K562 was > 100 µM (inactive); in the test with CCRF-CEM, > 100 µM (inactive); with NCI-H460 it was > 100 µM (inactive); in the test on HCT-15 it was over 100 µM; with HCC 2998, > 100 µM (inactive); in the test with SN12C it was > 100 µM (inactive). For the same compound, the GI50 in the test on HT-29 was > 100 µM (inactive); in the test with RPMI-8226 it was 61.1 µM (inactive); in the test on SF-295, > 100 µM (inactive); with DLD-1, > 100 µM (inactive); in the test on A498, > 100 µM (inactive); in the test on SK-MEL-28, 80 µM (inactive). Moreover, the GI50 in the test on SK-MEL-5, with NCI-H226, in the test on NCI-H23 and in the test with ACHN was > 100 µM (inactive) throughout.

With `Cc1ccc(NC(=O)CC(=O)n2nc(C)c(/N=N/c3ccccc3C(=O)O)c2C)cc1`, the GI50 with K562 is > 100 µM (inactive); in the test with CCRF-CEM, > 100 µM (inactive); with NCI-H460 it was > 100 µM (inactive); in the test with HCT-15 it was over 100 µM; in the test with HCC 2998 it was > 100 µM (inactive); with SN12C, > 100 µM (inactive). The GI50 with HT-29, in the test with RPMI-8226, in the test on SF-295, with DLD-1, in the test with A498 and in the test with SK-MEL-28 was > 100 µM (inactive) in each case. The GI50 in the test on SK-MEL-5 and in the test with NCI-H23 was > 100 µM (inactive) each time.

Take `Cc1[nH]c2ccccc2c1C1Cc2ccccc2N1C(=O)/C=C/C(=O)O` (stereo not given): the GI50 with K562 is > 100 µM (inactive); in the test on CCRF-CEM it was > 100 µM (inactive); with NCI-H460, 20 µM (inactive); with HCT-15 it was 16.1 µM; in the test with HCC 2998, > 100 µM (inactive); in the test on SN12C, > 100 µM (inactive). The GI50 in the test with HT-29, in the test on SF-295, with DLD-1, with A498, in the test on SK-MEL-5 and with NCI-H226 was > 100 µM (inactive) each time. Also, the GI50 with NCI-H23 and with ACHN was > 100 µM (inactive) in each case.

On to `Cn1nc(-c2ccccc2)c(C(=O)/C=C/c2ccccc2)c(N2CCOCC2)c1=O`, for which the GI50 in the test with K562 was 17.9 µM (inactive); in the test with CCRF-CEM, 18.8 µM (inactive); in the test with NCI-H460 it was 22.9 µM (inactive); in the test on HCT-15, 16.7 µM; in the test on SN12C, 21.4 µM (inactive); in the test on HT-29, 17.7 µM (inactive). The GI50 in the test on RPMI-8226 is 14.6 µM (inactive); in the test on DLD-1, 20.4 µM (inactive); in the test with A498, 15.4 µM (inactive); in the test on SK-MEL-28 it was > 10 µM (inactive); with SK-MEL-5 it was 16 µM (inactive); in the test with NCI-H23, 16.4 µM (inactive). In the test on ACHN, the GI50 is 20 µM (inactive).

On to `CCOC(=O)NC(=O)c1cn(CCN2CCN(C(=O)NCCCCCCNC(=O)N3CCN(CCn4cc(C(=O)NC(=O)OCC)c(=O)n(CCN(CC)CC)c4=O)CC3)CC2)c(=O)n(CCC(CC)CC)c1=O`, for which the GI50 is > 100 µM (inactive) in the test on K562; > 100 µM (inactive) with NCI-H460; over 100 µM in the test with HCT-15; > 100 µM (inactive) with HCC 2998; > 100 µM (inactive) with SN12C; > 100 µM (inactive) with HT-29. Also, the GI50 with RPMI-8226, in the test on SF-295, with DLD-1, in the test on A498, in the test with SK-MEL-28 and in the test with SK-MEL-5 was > 100 µM (inactive) in each case. Besides, the GI50 with NCI-H23 and in the test on ACHN was > 100 µM (inactive) throughout.

In the case of `O=[N+]([O-])c1cc(Cl)ccc1OCc1ccccc1`, the GI50 in the test on K562 was 42.7 µM (inactive); in the test with CCRF-CEM, 40.9 µM (inactive); with NCI-H460, 55.8 µM (inactive); in the test with HCT-15, 67 µM; with HCC 2998, > 100 µM (inactive); in the test on SN12C it was > 100 µM (inactive). For the same compound, the GI50 is 29.6 µM (inactive) in the test with HT-29; 67 µM (inactive) in the test on RPMI-8226; 56.6 µM (inactive) in the test with SF-295; 82.2 µM (inactive) in the test on DLD-1; > 100 µM (inactive) with A498; > 100 µM (inactive) in the test on SK-MEL-28. Moreover, the GI50 with SK-MEL-5 was 27.3 µM (inactive); in the test with NCI-H23 it was 32.1 µM (inactive); in the test on ACHN it was 51.4 µM (inactive).

As for `O=c1c2cc(-c3ccccc3)sc2nc2sc(-c3ccccc3)nn12`, the GI50 was > 100 µM (inactive) in the test on K562; > 100 µM (inactive) with CCRF-CEM; > 100 µM (inactive) with NCI-H460; over 100 µM with HCT-15; > 100 µM (inactive) in the test on SN12C; > 100 µM (inactive) in the test on HT-29. In addition, the GI50 in the test with RPMI-8226, in the test with SF-295, with DLD-1, in the test with A498, in the test on SK-MEL-5 and in the test on NCI-H226 was > 100 µM (inactive) throughout. For the same compound, the GI50 in the test with NCI-H23 was > 100 µM (inactive).

For the compound `O=C(O)C(=O)/C=C\c1ccc(Cl)cc1`, the GI50 in the test with K562 is > 100 µM (inactive); with CCRF-CEM, > 100 µM (inactive); in the test on NCI-H460, > 100 µM (inactive); in the test with HCT-15, over 100 µM; in the test with HCC 2998, > 100 µM (inactive); with SN12C, > 100 µM (inactive). Besides, the GI50 with HT-29, in the test on RPMI-8226, in the test on SF-295, in the test with DLD-1, in the test on A498 and in the test with SK-MEL-28 was > 100 µM (inactive) in each case. In addition, the GI50 in the test with SK-MEL-5, in the test on NCI-H226, in the test on NCI-H23 and with ACHN was > 100 µM (inactive) throughout.

Turning to `COc1cc(/C=N/N=C(\N)NO)c([N+](=O)[O-])cc1OC`, the GI50 in the test with K562 was 36.5 µM (inactive); in the test on CCRF-CEM, 41.6 µM (inactive); with NCI-H460 it was 12.6 µM (inactive); with HCT-15 it was 22.7 µM; with HCC 2998, 24.2 µM (inactive); with SN12C, 27 µM (inactive). Moreover, the GI50 in the test with HT-29 is 30.1 µM (inactive); with RPMI-8226 it was 73.8 µM (inactive); in the test with SF-295, 30.6 µM (inactive); in the test on DLD-1 it was 56 µM (inactive); in the test with A498 it was 37.7 µM (inactive); with SK-MEL-28, > 100 µM (inactive). The GI50 in the test with SK-MEL-5 was 18 µM (inactive); in the test on NCI-H226, 14.7 µM (inactive); in the test on NCI-H23, 32.4 µM (inactive); with ACHN, 14.8 µM (inactive).
